Assay results as given in ChEMBL document CHEMBL5584246, “Novel dihydropyrimidines as promising EGFR & HER2 inhibitors: Insights from experimental and computational studies” (Eur J Med Chem, 2024).

What was measured:
[1] = test system: MCF7; experiment: Cytotoxicity against human MCF7 cells assessed as inhibition of cell growth measured after 3 days by MTT assay; assay type: functional, cell-based; settings: MCF7, 72 h
[2] = Cytotoxicity against African green monkey Vero cells assessed as inhibition of cell growth measured after 3 days by MTT assay; assay type: toxicity, cell-based; settings: African green monkey (Chlorocebus sabaeus)
[3] = Inhibition of HER2 expression in human MCF7 cells assessed as negative expression region (M1) at 100 nM incubated for 24 hrs by flow cytometry analysis (reference value: 0.98%); assay type: functional
[4] = Inhibition of EGFR expression in human MCF7 cells assessed as positive expression region (M2) at 500 nM incubated for 24 hrs by flow cytometry analysis (reference value: 99.36%); assay type: functional
[5] = Inhibition of HER2 expression in human MCF7 cells assessed as negative expression region (M1) at 1000 nM incubated for 24 hrs by flow cytometry analysis (reference value: 0.98%); assay type: functional
[6] = Inhibition of EGFR expression in human MCF7 cells assessed as positive expression region (M2) at 50 nM incubated for 24 hrs by flow cytometry analysis (reference value: 99.36%); assay type: functional
[7] = Inhibition of EGFR expression in human MCF7 cells assessed as negative expression region (M1) at 500 nM incubated for 24 hrs by flow cytometry analysis (reference value: 0.66%); assay type: functional
[8] = Inhibition of HER2 expression in human MCF7 cells assessed as negative expression region (M1) at 500 nM incubated for 24 hrs by flow cytometry analysis (reference value: 0.98%); assay type: functional
[9] = Inhibition of EGFR expression in human MCF7 cells assessed as positive expression region (M2) at 100 nM incubated for 24 hrs by flow cytometry analysis (reference value: 99.36%); assay type: functional
[10] = Inhibition of EGFR expression in human MCF7 cells assessed as negative expression region (M1) at 100 nM incubated for 24 hrs by flow cytometry analysis (reference value: 0.66%); assay type: functional
[11] = Inhibition of EGFR expression in human MCF7 cells assessed as positive expression region (M2) at 25 nM incubated for 24 hrs by flow cytometry analysis (reference value: 99.36%); assay type: functional
[12] = Inhibition of HER2 expression in human MCF7 cells assessed as positive expression region (M2) at 50 nM incubated for 24 hrs by flow cytometry analysis (reference value: 99.09%); assay type: functional
[13] = Inhibition of HER2 expression in human MCF7 cells assessed as negative expression region (M1) at 25 nM incubated for 24 hrs by flow cytometry analysis (reference value: 0.98%); assay type: functional
[14] = Inhibition of HER2 expression in human MCF7 cells assessed as negative expression region (M1) at 50 nM incubated for 24 hrs by flow cytometry analysis (reference value: 0.98%); assay type: functional
[15] = Inhibition of EGFR expression in human MCF7 cells assessed as negative expression region (M1) at 50 nM incubated for 24 hrs by flow cytometry analysis (reference value: 0.66%); assay type: functional
[16] = Inhibition of HER2 expression in human MCF7 cells assessed as positive expression region (M2) at 100 nM incubated for 24 hrs by flow cytometry analysis (reference value: 99.09%); assay type: functional
[17] = Inhibition of HER2 expression in human MCF7 cells assessed as positive expression region (M2) at 500 nM incubated for 24 hrs by flow cytometry analysis (reference value: 99.09%); assay type: functional
[18] = Inhibition of EGFR expression in human MCF7 cells assessed as negative expression region (M1) at 25 nM incubated for 24 hrs by flow cytometry analysis (reference value: 0.66%); assay type: functional
[19] = Inhibition of HER2 expression in human MCF7 cells assessed as positive expression region (M2) at 25 nM incubated for 24 hrs by flow cytometry analysis (reference value: 99.09%); assay type: functional
[20] = Inhibition of EGFR expression in human MCF7 cells assessed as positive expression region (M2) at 1000 nM incubated for 24 hrs by flow cytometry analysis (reference value: 99.36%); assay type: functional
[21] = Inhibition of EGFR expression in human MCF7 cells assessed as negative expression region (M1) at 1000 nM incubated for 24 hrs by flow cytometry analysis (reference value: 0.66%); assay type: functional
[22] = biological target: Epidermal growth factor receptor (Homo sapiens, UniProt P00533); experiment: Inhibition of wild type EGFR (unknown origin) incubated for 40 mins in presence of ATP by kinase glo max assay
Epidermal growth factor receptor, sequence (P00533 whole entry): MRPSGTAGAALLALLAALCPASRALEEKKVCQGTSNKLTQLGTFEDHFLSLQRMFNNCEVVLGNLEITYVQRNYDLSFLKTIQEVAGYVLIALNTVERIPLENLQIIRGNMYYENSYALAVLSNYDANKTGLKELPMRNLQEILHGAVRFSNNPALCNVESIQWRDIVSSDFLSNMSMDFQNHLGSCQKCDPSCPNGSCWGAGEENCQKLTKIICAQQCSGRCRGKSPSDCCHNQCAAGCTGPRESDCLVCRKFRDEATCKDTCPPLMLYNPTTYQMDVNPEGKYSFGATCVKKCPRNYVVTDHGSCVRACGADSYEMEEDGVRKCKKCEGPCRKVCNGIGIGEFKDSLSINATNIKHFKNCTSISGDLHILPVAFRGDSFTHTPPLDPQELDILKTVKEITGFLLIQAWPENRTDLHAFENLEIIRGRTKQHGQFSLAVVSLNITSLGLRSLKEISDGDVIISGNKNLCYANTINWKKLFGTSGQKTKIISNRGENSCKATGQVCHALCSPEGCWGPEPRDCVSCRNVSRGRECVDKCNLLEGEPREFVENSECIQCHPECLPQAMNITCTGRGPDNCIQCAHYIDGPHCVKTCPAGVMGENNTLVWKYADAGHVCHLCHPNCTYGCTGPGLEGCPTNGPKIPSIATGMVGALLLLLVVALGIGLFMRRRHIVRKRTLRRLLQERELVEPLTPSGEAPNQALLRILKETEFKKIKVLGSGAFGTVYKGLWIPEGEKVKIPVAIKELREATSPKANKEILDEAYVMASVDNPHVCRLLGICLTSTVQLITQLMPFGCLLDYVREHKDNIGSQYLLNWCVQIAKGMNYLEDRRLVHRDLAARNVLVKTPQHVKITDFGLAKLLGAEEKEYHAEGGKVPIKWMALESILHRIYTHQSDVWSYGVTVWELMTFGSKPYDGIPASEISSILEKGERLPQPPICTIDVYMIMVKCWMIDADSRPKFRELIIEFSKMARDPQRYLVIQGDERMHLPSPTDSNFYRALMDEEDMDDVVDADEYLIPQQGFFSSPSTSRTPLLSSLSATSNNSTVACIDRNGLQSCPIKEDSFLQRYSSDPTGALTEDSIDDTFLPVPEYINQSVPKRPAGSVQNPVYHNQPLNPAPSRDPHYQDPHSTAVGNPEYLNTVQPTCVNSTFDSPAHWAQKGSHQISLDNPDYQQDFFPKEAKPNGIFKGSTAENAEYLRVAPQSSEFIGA

[23] = Inhibition of HER2 expression in human MCF7 cells assessed as positive expression region (M2) at 1000 nM incubated for 24 hrs by flow cytometry analysis (reference value: 99.09%); assay type: functional

SMILES: COc1ccc(NC(=O)C2=C(C)NC(=S)NC2c2ccco2)c(OC)c1 (centres undefined)
- IC50 [1]: 38.3 µM
- IC50 at 3 days [2]: 45.5 µM

SMILES: COc1ccc(NC(=O)C2=C(C)NC(=O)NC2c2ccccc2)c(OC)c1 (centres undefined)
- IC50 [1]: 38.2 µM
- IC50 at 3 days [2]: 60.4 µM

SMILES: COc1ccc(NC(=O)C2=C(C)NC(=O)NC2/C=C\c2ccccc2)c(OC)c1 (centres undefined)
- IC50 [1]: 19.3 µM
- IC50 at 3 days [2]: 30.4 µM

SMILES: COc1ccc(C2NC(=S)NC(C)=C2C(=O)Nc2ccc(OC)cc2OC)cc1 (centres undefined)
- IC50 [1]: 28.1 µM
- IC50 at 3 days [2]: 32.8 µM

SMILES: COc1ccc(NC(=O)C2=C(C)NC(=S)NC2c2ccc(OCc3ccccc3)c(OC)c2)c(OC)c1 (centres undefined)
- IC50 [1]: 17 µM
- inhibition at 0.1 µM [3]: 72.1%
- inhibition at 0.5 µM [4]: 17.4%
- inhibition at 1 µM [5]: 92.7%
- inhibition at 0.05 µM [6]: 38.4%
- inhibition at 0.5 µM [7]: 83.2%
- inhibition at 0.5 µM [8]: 78.4%
- inhibition at 0.1 µM [9]: 20.1%
- inhibition at 0.1 µM [10]: 80.5%
- inhibition at 0.025 µM [11]: 68.7%
- inhibition at 0.05 µM [12]: 57.8%
- inhibition at 0.025 µM [13]: 14.9%
- inhibition at 0.05 µM [14]: 42.6%
- inhibition at 0.05 µM [15]: 62.4%
- inhibition at 0.1 µM [16]: 28.3%
- inhibition at 0.5 µM [17]: 22.3%
- inhibition at 0.025 µM [18]: 32.1%
- inhibition at 0.025 µM [19]: 85.5%
- inhibition at 1 µM [20]: 4.17%
- inhibition at 1 µM [21]: 96%
- IC50 [22]: 0.0768 µM
- inhibition at 1 µM [23]: 7.42%
- IC50 at 3 days [2]: 52.9 µM

SMILES: COc1ccc(NC(=O)C2=C(C)NC(=S)NC2c2ccc(N(C)C)cc2)c(OC)c1 (centres undefined)
- IC50 [1]: 25.1 µM
- IC50 at 3 days [2]: 53.1 µM

SMILES: COc1ccc(NC(=O)C2=C(C)NC(=O)NC2c2ccco2)c(OC)c1 (centres undefined)
- IC50 [1]: 27.4 µM
- IC50 at 3 days [2]: 62.4 µM

SMILES: COc1ccc(NC(=O)C2=C(C)NC(=O)NC2c2cccc(Br)c2)c(OC)c1 (centres undefined)
- IC50 [1]: 31.2 µM
- IC50 at 3 days [2]: 48.1 µM

SMILES: COc1ccc(NC(=O)C2=C(C)NC(=S)NC2/C=C\c2ccccc2)c(OC)c1 (centres undefined)
- IC50 [1]: 24.5 µM
- IC50 at 3 days [2]: 47.3 µM

SMILES: COc1ccc(NC(=O)C2=C(C)NC(=S)NC2c2c[nH]c3ccccc23)c(OC)c1 (centres undefined)
- IC50 [1]: 29.4 µM
- IC50 at 3 days [2]: 50.3 µM

SMILES: COc1ccc(NC(=O)C2=C(C)NC(=S)NC2c2ccc(C)cc2)c(OC)c1 (centres undefined)
- IC50 [1]: 38.2 µM
- IC50 at 3 days [2]: 53.6 µM

SMILES: COc1ccc(NC(=O)C2=C(C)NC(=S)NC2c2ccccc2O)c(OC)c1 (centres undefined)
- IC50 [1]: 32.1 µM
- IC50 at 3 days [2]: 60.4 µM

SMILES: COc1ccc(NC(=O)C2=C(C)NC(=O)NC2c2ccc(N(C)C)cc2)c(OC)c1 (centres undefined)
- IC50 [1]: 19.5 µM
- IC50 at 3 days [2]: 53.1 µM

SMILES: COc1ccc(NC(=O)C2=C(C)NC(=O)NC2)c(OC)c1
- IC50 [1]: 81.5 µM
- IC50 at 3 days [2]: 87.2 µM

SMILES: CCOc1cc(C2NC(=S)NC(C)=C2C(=O)Nc2ccc(OC)cc2OC)ccc1O (centres undefined)
- IC50 [1]: 25.3 µM
- IC50 at 3 days [2]: 57.4 µM

SMILES: COc1ccc(NC(=O)C2=C(C)NC(=O)NC2c2ccc(Br)cc2)c(OC)c1 (centres undefined)
- IC50 [1]: 31.6 µM
- IC50 at 3 days [2]: 49.4 µM

SMILES: COc1ccc(NC(=O)C2=C(C)NC(=O)NC2c2c[nH]c3ccccc23)c(OC)c1 (centres undefined)
- IC50 [1]: 20.2 µM
- IC50 at 3 days [2]: 42.6 µM

SMILES: COc1ccc(NC(=O)C2=C(C)NC(=S)NC2c2ccc(O)cc2)c(OC)c1 (centres undefined)
- IC50 [1]: 28.6 µM
- IC50 at 3 days [2]: 40 µM

SMILES: CCOc1cc(C2NC(=O)NC(C)=C2C(=O)Nc2ccc(OC)cc2OC)ccc1O (centres undefined)
- IC50 [1]: 21 µM
- IC50 at 3 days [2]: 58.2 µM
